Data as given in patent US5654308A (priority 1990, dated 1997).
Structures can show the parent of a compound that is named as a salt. Where two headings read alike, the source gives them in different places.

Biological target: T1, acetylcholine esterase (Mus musculus, UniProt P21836)
T1 construct: using a mouse brain homogenate as the acetylcholine esterase source; from tissue; host or cells: mouse brain homogenate
Test: biochemical

[1] = read-out: AChE inhibiting activity IC50

T1 sequence (P21836 32-614): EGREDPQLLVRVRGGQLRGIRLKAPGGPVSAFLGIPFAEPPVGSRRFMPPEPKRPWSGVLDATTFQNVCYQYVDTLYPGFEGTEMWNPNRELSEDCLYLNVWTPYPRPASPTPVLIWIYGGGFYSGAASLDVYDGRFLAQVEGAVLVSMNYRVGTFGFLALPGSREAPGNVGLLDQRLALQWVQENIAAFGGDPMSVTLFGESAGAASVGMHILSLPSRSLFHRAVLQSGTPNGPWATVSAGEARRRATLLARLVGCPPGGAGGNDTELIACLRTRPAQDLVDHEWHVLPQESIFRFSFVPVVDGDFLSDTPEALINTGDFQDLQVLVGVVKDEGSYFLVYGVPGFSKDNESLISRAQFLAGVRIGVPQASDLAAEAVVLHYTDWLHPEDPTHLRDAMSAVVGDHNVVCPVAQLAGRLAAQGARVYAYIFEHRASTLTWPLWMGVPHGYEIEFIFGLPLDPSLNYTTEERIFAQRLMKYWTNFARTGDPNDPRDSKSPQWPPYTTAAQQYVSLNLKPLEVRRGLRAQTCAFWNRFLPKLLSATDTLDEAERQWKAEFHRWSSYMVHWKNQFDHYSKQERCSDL

Structure (SMILES) | IC50 | IC50 [1]
COc1cccc2c1CN(CCC1CCN(Cc3ccccc3)CC1)C(=O)O2 [Example 1, 3-[2-(1-Benzyl-4-piperidyl)ethyl]-5-methoxy-2H-3,4-dihydro-1,3-benzoxazin-2-one hydrochloride] | 0.03 nM | 
O=C1Oc2ccccc2CN1CCC1CCN(Cc2ccccc2)CC1 [Example 2, 3-[2-(1-Benzyl-4-piperidyl)ethyl]-2H-3,4-dihydro-1,3-benzoxazin-2-one hydrochloride] | 4.94 nM | 
O=c1oc2ccccc2c(=O)n1CCC1CCN(Cc2ccccc2)CC1 [Example 3, 3-[2-(1-Benzyl-4-piperidyl)ethyl]-2H-3,4-dihydro-1,3-benzoxazine-2,4-dione hydrochloride] | 8.52 nM | 
COc1ccc2c(c1)CN(CCC1CCN(Cc3ccncc3)CC1)C(=O)O2 [Example 4, 3-{2-[1-(4-Pyridylmethyl)-4-piperidyl]ethyl}-6-methoxy-2H-3,4-dihydro-1,3-benzoxazin-2-one dihydrochloride] | 7.93 nM | 
COc1ccc2c(c1)CN(CCC1CCN(CC3OCCO3)CC1)C(=O)O2 [Example 5, 3-{2-[1-(1,3-Dioxolan-2-ylmethyl)}-4-piperidine]ethyl}-6-methoxy-2H-3,4-dihydro-1,3-benzoxazin-2-one hydrochloride] |  | 49.5 nM
COc1ccc2oc(=O)n(CCC3CCN(CC4CCCC4)CC3)c(=O)c2c1 [Example 6, 3-[2-(1-Cyclopentylmethyl-4-piperidyl)-6-methoxy-ethyl]-2H-3,4-dihydro-1,3-benzoxazine-2,4-dione hydrochloride] | 4.86 nM | 
COc1ccc2oc(=O)n(CCC3CCN(CC4OCCO4)CC3)c(=O)c2c1 [Example 7, 3-{2-[1-(1,3-Dioxolan-2-ylmethyl)-4-piperidyl]ethyl}-6-methoxy-2H-3,4-dihydro-1,3-benzoxazine-2,4-dione hydrochloride] | 124 nM | 
Cc1ccc2c(n1)CN(CCC1CCN(Cc3ccccc3)CC1)C(=S)O2 [Example 9, 3-[2-(1-Benzyl-4-piperidyl)ethyl]-2H-3,4-dihydro-6-methylpyrido[2,3-d]-m-oxazine-2-thione hydrochloride] | 8.38 nM | 
O=c1[nH]c2nccnc2c(=O)n1CCC1CCN(Cc2ccccc2)CC1 [Example 10, 3-[2-{4 [(1-Benzyl)piperidyl]}ethyl]pyrazino[2,3-d]-pyprimidine-2,4-dione fumarate] | 31.8 nM | 
CC1(O)c2nccnc2C(=O)N1CCC1CCN(Cc2ccccc2)CC1 (centres unmarked) [Example 11, 1-[2-{4-[(1-Benzyl)piperidyl]}ethyl]-7-hydroxy-7-methylpiperazino[2,3-c]pyrrolidin-2-one] | 99.6 nM | 
C=C1c2nccnc2C(=O)N1CCC1CCN(Cc2ccccc2)CC1 [Example 12, 1-[2-{4-[(1-Benzyl)piperidyl]}ethyl]-7-methylenepiperazino[2,3-c]pyrrolidin-2-one fumarate] | 1.82 nM | 
O=C(c1ccccc1)C1CC(=O)N(CCC2CCN(Cc3ccccc3)CC2)C1 (centres unmarked) [Example 13, 1-[2-{4-[(1-Benzyl)piperidyl]}ethyl]-4-benzoylpyrrolidin-2-one hydrochloride] |  | 20.3 nM
O=C1CC(Cc2ccccc2)CN1CCC1CCN(Cc2ccccc2)CC1 (centres unmarked) [Example 14, 1-[2-{(4-[(1-Benzyl)piperidyl]}ethyl]-4-benzylpyrrolidin-2-one hydrochloride] | 23.8 nM | 
O=C1CCCc2cccnc2N1CCC1CCN(Cc2ccccc2)CC1 [Example 20] |  | 69.1 nM
COc1ccc2c(c1)OC(=O)N(CCC1CCN(Cc3ccccc3)CC1)C2 [Example 24] | 1.87 nM | 
COc1cccc2c1OC(=O)N(CCC1CCN(Cc3ccccc3)CC1)C2 [Example 25] | 2.74 nM | 
COc1ccc2c(c1)CN(CCC1CCN(Cc3ccccc3)CC1)C(=O)O2 [Example 26] | 0.5 nM | 
C=C1c2ccccc2C(=O)N1CCC1CCN(Cc2ccccc2)CC1 [Example 27] | 45.4 nM | 
COc1cc(OC)c2c(c1)OC(=O)N(CCC1CCN(Cc3ccccc3)CC1)C2 [Example 28] | 0.38 nM | 
O=C1Oc2c(Cl)cc(Cl)cc2CN1CCC1CCN(Cc2ccncc2)CC1 [Example 30] | 29.1 nM | 
O=C1Oc2ccc([N+](=O)[O-])cc2CN1CCC1CCN(Cc2ccccc2)CC1 [Example 31] | 0.58 nM | 
O=C1Oc2ccc(Cl)cc2CN1CCC1CCN(Cc2ccccc2)CC1 [Example 32] | 1.39 nM | 

Structure (SMILES) | IC50 | IC50 [1]
O=C1Oc2ccc([N+](=O)[O-])cc2CN1CCC1CCN(Cc2ccncc2)CC1 [Example 34] | 13.8 nM | 
Nc1ccc2c(c1)CN(CCC1CCN(Cc3ccccc3)CC1)C(=O)O2 [Example 35] | 1.85 nM | 
CC(=O)Nc1ccc2c(c1)CN(CCC1CCN(Cc3ccccc3)CC1)C(=O)O2 [Example 36] | 1.17 nM | 
Cc1ccc2oc(=O)n(CCC3CCN(Cc4ccccc4)CC3)c(=O)c2c1 [Example 37] | 2.97 nM | 
COc1ccc2oc(=O)n(CCC3CCN(Cc4ccccc4)CC3)c(=O)c2c1 [Example 38] | 0.7 nM | 
O=c1oc2ccc(F)cc2c(=O)n1CCC1CCN(Cc2ccccc2)CC1 [Example 39] | 7.79 nM | 
O=c1oc2ccc(F)cc2c(=O)n1CCC1CCN(CC2OCCO2)CC1 [Example 40] | 1020 nM | 
COc1ccc2c(c1)CN(CCC1CCN(CC3CCCC3)CC1)C(=O)O2 [Example 41] | 4.64 nM | 
COc1ccc2c(c1)CN(CCC1CCN(CC3CCCCC3)CC1)C(=O)O2 [Example 42] | 3.92 nM | 
COc1ccc2oc(=O)n(CCC3CCN(CC4CCCCC4)CC3)c(=O)c2c1 [Example 43] | 2.96 nM | 
COc1ccc2c(c1)CN(CCC1CCN(Cc3ccoc3)CC1)C(=O)O2 [Example 44] |  | 5.04 nM
COc1ccc2oc(=O)n(CCC3CCN(Cc4ccoc4)CC3)c(=O)c2c1 [Example 46] | 11.4 nM | 
COc1cccc2c1CN(CCC1CCN(CC3OCCO3)CC1)C(=O)O2 [Example 52] | 64.9 nM | 
COc1ccc2oc(=O)n(CCC3CCN(Cc4cccc(F)c4)CC3)c(=O)c2c1 [Example 53] | 0.18 nM | 
COc1ccc2c(c1)CN(CCC1CCN(Cc3cccc(F)c3)CC1)C(=O)O2 [Example 54] | 0.34 nM | 
Cc1ccc2oc(=O)n(CCC3CCN(Cc4ccccc4)CC3)c(=O)c2n1 [Example 64] | 9.11 nM | 
O=C(c1ccccc1)C1CC(=O)N(C2CCN(Cc3ccccc3)CC2)C1 (centres unmarked) [Example 65] | 34000 nM | 
O=C1Nc2ncccc2CN1CCC1CCN(CC2OCCO2)CC1 [Example 66] | 288 nM | 
O=c1[nH]c2c([N+](=O)[O-])cccc2c(=O)n1CCC1CCN(CC2OCCO2)CC1 [Example 68] |  | 220 nM
O=c1[nH]c2ncccc2c(=O)n1CCC1CCN(Cc2ccncc2)CC1 [Example 71] | 137 nM | 
CCOc1ccccc1C(=O)C1CC(=O)N(CCC2CCN(Cc3ccccc3)CC2)C1 (centres unmarked) [Example 74] | 27.7 nM | 
CCOc1ccc(C(=O)C2CC(=O)N(CCC3CCN(Cc4ccccc4)CC3)C2)cc1 (centres unmarked) [Example 75] | 20.8 nM | 
